Measurements as given in EPA's ToxRefDB 2.

Experiments:
mouse [1] = conditions: Prenatal developmental toxicity study, other, Injection, Intraperitoneal, dose end: 13 GD
rat [2] = conditions: Subchronic oral toxicity in rodents, fischer, Feed, dose end: 14 week, group: systemic
mouse [3] = conditions: Carcinogenicity, b6c3f1, Oral, Gavage/Intubation, dose end: 2 year, group: systemic
mouse [4] = conditions: Subchronic oral toxicity in rodents, b6c3f1, Gavage/Intubation, dose end: 14 week, group: systemic
rat [5] = conditions: Combined chronic toxicity/carcinogenicity; fischer; Oral; Gavage/Intubation; dose end: 2 year; group: systemic; systemic / in life observation / body weight / body weight gain
rat [6] = conditions: Subchronic oral toxicity in rodents, fischer, Gavage/Intubation, dose end: 14 week, group: systemic
rat [7] = conditions: Prenatal developmental toxicity study, sprague dawley, Oral, Feed, dose end: 15 GD
mouse [8] = conditions: Subchronic oral toxicity in rodents, b6c3f1, Feed, dose end: 14 week, group: systemic
mouse [9] = conditions: Prenatal developmental toxicity study, cd1, Oral, Water, dose end: 15 GD
rabbit = conditions: Prenatal developmental toxicity study, other, Injection, Intravenous, dose end: 18 GD
dog = conditions: Sub-acute repeat dose toxicity; beagle; Injection; Intravenous; dose end: 4 week; group: systemic; systemic / clinical chemistry / alanine aminotransferase (alt/sgpt) / alanine aminotransferase (alt/sgpt) + systemic / clinical chemistry / …
rat [10] = conditions: Subchronic oral toxicity in rodents, sprague dawley, Gavage/Intubation, dose end: 13 week, group: systemic, systemic / pathology microscopic / adrenal gland / congestion + systemic / pathology microscopic / brain / congestion + systemic / pathology…
[11] = group: developmental, developmental / developmental malformation / general / [other] + developmental / developmental malformation / limb / micromelia + …
[12] = group: developmental, developmental / developmental malformation / paw / digit / ectrodactyly
[13] = group: maternal, reproductive / reproductive performance / resorptions / resorptions + reproductive / offspring survival early / dead fetuses / dead fetuses
[14] = systemic / hematology / mean corpuscular (cell) volume (mcv) / mean corpuscular (cell) volume (mcv) + systemic / hematology / mean …
[15] = systemic / hematology / neutrophils / neutrophils
[16] = systemic / in life observation / body weight / body weight
[17] = systemic / in life observation / body weight / body weight + systemic / in life observation / clinical signs / hyperactivity
[18] = systemic / in life observation / mortality / mortality + systemic / pathology microscopic / liver / glycogen deposition + systemic / …
[19] = systemic / pathology microscopic / liver / glycogen deposition
[20] = systemic / hematology / mean corpuscular hemoglobin (mch) / mean corpuscular hemoglobin (mch)
[21] = group: developmental, systemic / in life observation / body weight / fetal weight
[22] = group: maternal, reproductive / offspring survival early / litter size / litter size + systemic / in life observation / body weight / body weight gain + …
[23] = group: maternal, systemic / in life observation / water consumption / water consumption
[24] = systemic / in life observation / body weight / body weight + systemic / in life observation / body weight / body weight gain
[25] = systemic / in life observation / body weight / body weight + systemic / in life observation / body weight / body weight gain + systemic / …
[26] = group: maternal, reproductive / reproductive performance / resorptions / resorptions + systemic / in life observation / body weight / body weight gain + …
[27] = group: developmental, developmental / developmental malformation / bone / [other] + developmental / developmental malformation / bone / supernumerary + …
[28] = group: maternal, reproductive / reproductive performance / aborted / aborted + systemic / in life observation / body weight / body weight + systemic / in …

For Cn1c(=O)c2[nH]cnc2n(C)c1=O [Theophylline], which LOAEL (mouse [1]; [11]) is on record?
Its LOAEL is greater than 200 mg/kg/day.

What about the NOAEL (mouse [1]; [11]) of the same molecule?
The NOAEL was no less than 200 mg/kg/day.

And the LEL (mouse [1]; [12])?
The LEL was 100 mg/kg/day.

What about the NEL (mouse [1]; [12]) of the same molecule?
Its NEL is less than 100 mg/kg/day.

What about the NEL (mouse [1]; group: maternal, reproductive / reproductive performance / resorptions / resorptions) of the same molecule?
The NEL was 150 mg/kg/day.

What about the LEL (mouse [1]; [13]) of the same molecule?
The LEL was 200 mg/kg/day.

What about the LOAEL (mouse [1]; [13]) of the same molecule?
Its LOAEL is greater than 200 mg/kg/day.

And the NOAEL (mouse [1]; [13])?
Its NOAEL is no less than 200 mg/kg/day.

And the LOAEL (rat [2]; [14])?
The LOAEL was 125 mg/kg/day.

And the NOAEL (rat [2]; [14])?
Its NOAEL is 75 mg/kg/day.

What about the LEL (rat [2]; [15]) of the same molecule?
The LEL was 75 mg/kg/day.

What about the NEL (rat [2]; [15]) of the same molecule?
Its NEL is less than 75 mg/kg/day.

What about the LEL (mouse [3]; [16]) of the same molecule?
Its LEL is 25 mg/kg/day.

And the LOAEL (mouse [3]; [16])?
The LOAEL was 25 mg/kg/day.

What about the NEL (mouse [3]; [17]) of the same molecule?
Its NEL is 7.5 mg/kg/day.

And the NOAEL (mouse [3]; [17])?
The NOAEL was 7.5 mg/kg/day.

What about the LOAEL (mouse [4]; [18]) of the same molecule?
The LOAEL was greater than 300 mg/kg/day.

What about the NOAEL (mouse [4]; [18]) of the same molecule?
Its NOAEL is no less than 300 mg/kg/day.

And the LEL (mouse [4]; [19])?
Its LEL is 75 mg/kg/day.

And the NEL (mouse [4]; [19])?
The NEL was less than 75 mg/kg/day.

What about the LEL (rat [5]) of the same molecule?
The LEL was 7.5 mg/kg/day.

And the LOAEL (rat [5])?
The LOAEL was 7.5 mg/kg/day.

What about the NEL (rat [5]) of the same molecule?
The NEL was less than 7.5 mg/kg/day.

What about the NOAEL (rat [5]) of the same molecule?
Its NOAEL is less than 7.5 mg/kg/day.

And the LEL (rat [6]; [20])?
Its LEL is 37.5 mg/kg/day.

What about the NEL (rat [6]; [20]) of the same molecule?
Its NEL is less than 37.5 mg/kg/day.

And the LOAEL (rat [6]; systemic / pathology microscopic / artery (general) / polyarteritis + systemic / hematology / mean corpuscular (cell) volume (mcv) / mean …)?
Its LOAEL is 150 mg/kg/day.

What about the NOAEL (rat [6]; systemic / pathology microscopic / artery (general) / polyarteritis + systemic / in life observation / body weight / body weight gain + …) of the same molecule?
The NOAEL was 75 mg/kg/day.

And the LEL (rat [7]; [21])?
The LEL was 218 mg/kg/day.

What about the LOAEL (rat [7]; [21]) of the same molecule?
Its LOAEL is greater than 259 mg/kg/day.

What about the NEL (rat [7]; [21]) of the same molecule?
The NEL was 124 mg/kg/day.

What about the NOAEL (rat [7]; [21]) of the same molecule?
Its NOAEL is no less than 259 mg/kg/day.

And the LOAEL (rat [7]; [22])?
Its LOAEL is greater than 259 mg/kg/day.

And the NOAEL (rat [7]; [22])?
Its NOAEL is no less than 259 mg/kg/day.

What about the LEL (rat [7]; [23]) of the same molecule?
The LEL was 124 mg/kg/day.

And the NEL (rat [7]; [23])?
Its NEL is less than 124 mg/kg/day.

What about the LOAEL (mouse [8]; [24]) of the same molecule?
Its LOAEL is 175 mg/kg/day.

What about the NOAEL (mouse [8]; [24]) of the same molecule?
Its NOAEL is less than 175 mg/kg/day.

And the LEL (mouse [8]; [25])?
The LEL was 175 mg/kg/day.

And the NEL (mouse [8]; [25])?
The NEL was less than 175 mg/kg/day.

What about the LEL (mouse [9]; [21]) of the same molecule?
The LEL was 372 mg/kg/day.

What about the LOAEL (mouse [9]; [21]) of the same molecule?
The LOAEL was greater than 396 mg/kg/day.

And the NEL (mouse [9]; [21])?
The NEL was 282 mg/kg/day.

What about the NOAEL (mouse [9]; [21]) of the same molecule?
Its NOAEL is no less than 396 mg/kg/day.

What about the LEL (mouse [9]; [26]) of the same molecule?
The LEL was 372 mg/kg/day.

What about the LOAEL (mouse [9]; [26]) of the same molecule?
Its LOAEL is greater than 396 mg/kg/day.

What about the NEL (mouse [9]; [26]) of the same molecule?
Its NEL is 282 mg/kg/day.

What about the NOAEL (mouse [9]; [26]) of the same molecule?
Its NOAEL is no less than 396 mg/kg/day.

And the LEL (rabbit; group: developmental, developmental / developmental malformation / bone / [other])?
Its LEL is 30 mg/kg/day.

And the LOAEL (rabbit; [27])?
The LOAEL was greater than 60 mg/kg/day.

And the NEL (rabbit; [27])?
Its NEL is 15 mg/kg/day.

What about the NOAEL (rabbit; [27]) of the same molecule?
Its NOAEL is no less than 60 mg/kg/day.

What about the LOAEL (rabbit; [28]) of the same molecule?
Its LOAEL is greater than 60 mg/kg/day.

What about the NEL (rabbit; [28]) of the same molecule?
Its NEL is 15 mg/kg/day.

What about the NOAEL (rabbit; [28]) of the same molecule?
Its NOAEL is no less than 60 mg/kg/day.

And the LEL (rabbit; group: maternal, systemic / urinalysis / volume / volume)?
The LEL was 30 mg/kg/day.

What about the LEL (dog) of the same molecule?
The LEL was 35 mg/kg/day.

What about the LOAEL (dog) of the same molecule?
The LOAEL was greater than 70 mg/kg/day.

What about the NEL (dog) of the same molecule?
The NEL was 20 mg/kg/day.

What about the NOAEL (dog) of the same molecule?
The NOAEL was no less than 70 mg/kg/day.

What does the source list for ClNc1nc(NCl)nc(NCl)n1 [Trichloromelamine]?
LEL (rat [10]): 150 mg/kg/day; LOAEL (rat [10]): 150 mg/kg/day; NEL (rat [10]): 30 mg/kg/day; NOAEL (rat [10]): 30 mg/kg/day
